{"source": "paper PMC3670040", "about": "“Structure of Lipid Kinase p110β/p85β Elucidates an Unusual SH2-Domain-Mediated Inhibitory Mechanism” (Molecular Cell, 2011)", "system": "p110β", "test": "Transcreener ADP formation (fluorescence polarization), diC8-PIP2/POPS liposomes, mouse p110β complexes", "type": "biochemical", "conditions": "ADP formation, 10 μM, Figure 1B", "procedure": "Figure 1 Inhibition of p110β by p85-Type Regulatory Subunits and Activation of the Complexes by RTK Phosphopeptide (A) Domain organization of p110β and the regulatory subunits p85α, p85β, and p55γ. The color scheme for the domains is used for all figures, unless otherwise stated. […] The inhibition is released upon addition of the 10 μM PDGFR pY2. […] The y axis is expressed as a change in fluorescence polarization (ΔmP), which is obtained by subtracting the observed polarization for the construct at a given enzyme concentration from the maximum fluorescence polarization for that construct. The plateau in these assays arises due to the competitive nature of the ADP detection system, based on displacement of ADP-Alexa 633 tracer from the ADP^2-antibody by ADP generated during the PI3K assay (see Supplemental Experimental Procedures). All measurements were done in triplicates, and the error bars indicate the standard error of the mean (SEM). […]\nFigure 3 Mutation Y677A in p85β-cSH2 Releases Inhibitory Effect on p110β (A) Kinase activity (ADP formation) of p110β in a complex with p85β-icSH2-Y677A (Y677A-ic) compared to the wild-type complex (ic) in the absence and presence of 10 μM PDGFR pY2 (ADP formation on the y axis expressed as in Figure 1B). […]\nThe lipid kinase activity was determined using the Transcreener ADP2 FP Assay (BellBrook Labs, Madison, WI) according to manufacturer‟s specifications. This non-radioactive assay measures activity by quantitating the amount of ADP formed. The ADP formed by PI3K competes with fluorescent ADP tracer for binding to an anti-ADP antibody, thereby decreasing fluorescence polarization. Because of the competitive nature of this assay, the change in fluorescence polarization signal is not a linear function of enzyme activity, and a convenient measure of enzyme activity is the EC50, or the concentration of enzyme necessary to give half-maximal inhibition of labeled ADP binding to the antibody, for a given concentration of substrate and a fixed time of reaction at initial rate. […]", "note": "Square brackets hold non-standard residues; d marks the D form. Ends that are not written are not given here. pY = N[C@@H](Cc1ccc(OP(=O)(O)O)cc1)C(=O)O"}
{"substance": "ESDGG[pY]MDMSKDESID[pY]VPMLDMKGDIKYADIE [pY2, bis-phosphopeptide (PDGFR 735–767, with pY740 and pY751)]", "values": [{"measurement": "effect on activity of p110β/p85β-iSH2 or ΔABD-p110β", "result": "did not affect the activity"}, {"measurement": "effect on kinase activity of complexes containing SH2 domains", "setting": "nicSH2, niSH2, or icSH2 complexes", "result": "stimulates kinase activity"}]}
